Reference: paper PMC10100771, “A Novel CMY Variant Confers Transferable High-Level Resistance to Ceftazidime-Avibactam in Multidrug-Resistant Escherichia coli” (Microbiology Spectrum, 2023)
≈ marks a conversion by molar mass, not a printed value.

Key:
E. coli DH5α-pCR2.1 = test: MIC by agar dilution, DH5α with blank vector pCR2.1; assay type: cell-based; conditions: Escherichia coli
Description: (§1) Antimicrobial susceptibility testing was performed and interpreted according to the Clinical and Laboratory Standards Institute (CLSI) guidelines and breakpoints (M100, 31st edition) by the agar dilution method. E. coli ATCC 25922 and K. pneumoniae ATCC 700603 served as control strains.
(§2) The antibiotics we used included meropenem (Hanhui Pharmaceutical Co., Ltd., China), imipenem (Merck Sharp & Dohme Corp., USA), cefepime (Jiangsu Hengrui Pharmaceutical Co., Ltd., China), piperacillin (Suzhou Erye Pharmaceutical Co., Ltd., China), ceftazidime (Guangdong Jincheng Jinsu Pharmaceutical Co., Ltd., China), tazobactam (Meilunbio, China), avibactam (MedChemExpress, USA), aztreonam (Sigma-Aldrich, USA), amikacin (Meilunbio), cefuroxime (Esseti Farmaceutici S.r.l., Italy), fosfomycin (Harbin Pharmaceutical Group Co., Ltd. China), levofloxacin (Daiichi Sankyo Company Limited, Beijing, China), and cefotaxime (North China Pharmaceutical Hebei Huamin Pharmaceutical Co., Ltd., China).
(§3) The blaCMY cloning was performed using a TA cloning kit (Invitrogen, Shanghai, China). The blaCMY-178 gene combined with its predicted promoter was amplified from isolate AR13438. Then, the blaCMY-178 gene was cloned into the linearized vector pCR2.1 using T4 DNA ligase (Invitrogen). The blaCMY-172 gene was cloned from KPCZA02 with the same method. The resulting plasmids were chemically transformed into E. coli DH5α. The positive transformants were identified by blue-white screening in MH agar containing 50 μg/mL kanamycin and were further confirmed by Sanger sequencing. The pCR2.1 blank vector was also transformed into E. coli DH5α as a control. The primers used for cloning were CMY-F and CMY-R (see Table S2 in the supplemental material). Relative CMY expression was measured by reverse transcription-quantitative PCR as described previously ([34]). Specific quantitative PCR (qPCR) primers (q-recA-F/R and q-CMY-F/R) were designed (Table S2).

E. coli DH5α = test: MIC by agar dilution, E. coli DH5α; assay type: cell-based; conditions: Escherichia coli
Description: as §1, §2

E. coli strain AR13438 = test: MIC by agar dilution, clinical isolate AR13438; assay type: cell-based, Escherichia coli; conditions: for Antimicrobial susceptibility category: AR13438, CLSI breakpoints (M100, 31st edition); for MIC: Escherichia coli, AR13438, clinical E. coli isolate (blaCMY-178, blaTEM-1, blaCTX-M-27), agar dilution
Description: as §1, §2

E. coli J53-KPCZA02 = test: MIC by agar dilution, conjugant containing pKPCZA02_4; assay type: cell-based; conditions: Escherichia coli, J53KPCZA02, E. coli J53-KPCZA02 (blaCMY-172)
Description: as §1
(§4) Conjugation experiments were performed by filter mating using sodium-azide-resistant E. coli J53 as the recipient, as described previously. Transconjugants were selected with MH agar containing 100 μg/mL sodium azide and 4 μg/mL ceftazidime-avibactam; furthermore, transconjugants were named J53-AR13438 and J53-KPCZA02, respectively. We compared genomes of AR13438 and J53 to select a unique gene (gtrA) to J53. […] The primers used for PCR were gtrA-F, gtrA-R, CMY-F, and CMY-R (Table S1). The transfer frequencies were calculated as the number of transconjugants (CFU/mL) divided by the number of recipients (CFU/mL). Donors and recipients were mixed at 1:1 for the transfer frequency experiment. S1-PFGE and Southern blotting were performed to define the location of blaCMY-178 and confirm the transmission of the plasmid as described previously ([35]). The MIC profiles of transconjugants were also determined by the agar dilution method.

E. coli J53 = test: MIC by agar dilution, recipient E. coli J53; assay type: cell-based; conditions: Escherichia coli
Description: as §1, §2
Conjugation experiments were performed by filter mating using sodium-azide-resistant E. coli J53 as the recipient, as described previously. Transconjugants were selected with MH agar containing 100 μg/mL sodium azide and 4 μg/mL ceftazidime-avibactam; furthermore, transconjugants were named J53-AR13438 and J53-KPCZA02, respectively. We compared genomes of AR13438 and J53 to select a unique gene (gtrA) to J53. The blaCMY-178-postive transconjugants were confirmed by PCR and MALDI-TOF MS (see Fig. S9 in the supplemental material). The primers used for PCR were gtrA-F, gtrA-R, CMY-F, and CMY-R (Table S1). The transfer frequencies were calculated as the number of transconjugants (CFU/mL) divided by the number of recipients (CFU/mL). Donors and recipients were mixed at 1:1 for the transfer frequency experiment. S1-PFGE and Southern blotting were performed to define the location of blaCMY-178 and confirm the transmission of the plasmid as described previously ([35]). The MIC profiles of transconjugants were also determined by the agar dilution method.

[1] = test system: E. coli DH5α-pCR2.1-CMY-172; test: MIC by agar dilution, transformant containing blaCMY-172; assay type: cell-based; conditions: Escherichia coli
Description: as §1, §2, §3

[2] = test system: K. pneumoniae isolate KPCZA02; test: microbe, parasite or virus in culture; assay type: cell-based; conditions: Klebsiella pneumoniae
Description: as §1

E. coli J53-AR13438 = test: MIC by agar dilution, conjugant containing pAR13438_2; assay type: cell-based; conditions: Escherichia coli, J53AR13438, E. coli J53-AR13438 (blaCMY-178)
Description: as §1, §4

[3] = test system: E. coli DH5α-pCR2.1-CMY-2; test: MIC by agar dilution, transformant containing blaCMY-2; assay type: cell-based; conditions: Escherichia coli
[4] = test system: E. coli DH5α-pCR2.1-CMY-178; test: MIC by agar dilution, transformant containing blaCMY-178; assay type: cell-based, Escherichia coli; conditions: for MIC: Escherichia coli, E. coli DH5α-pCR2.1-CMY-178, agar dilution; for Increase of MIC by blaCMY-178 compared with blaCMY-172: transformants in E. coli DH5α
Description: as §1, §2, §3

| SMILES | MIC (E. coli DH5α-pCR2.1) [µg/mL] | MIC (E. coli DH5α) [µg/mL] | Antimicrobial susceptibility category (E. coli strain AR13438) | MIC (E. coli strain AR13438) [µg/mL] | MIC (E. coli J53-KPCZA02) [µg/mL] | MIC (E. coli J53) [µg/mL] | MIC [1] [µg/mL] | MIC [2] [µg/mL] | MIC (E. coli J53-AR13438) [µg/mL] | MIC [3] [µg/mL] | MIC [4] [µg/mL] | Increase of MIC by blaCMY-178 compared with blaCMY-172 [4] |
| --- | --- | --- | --- | --- | --- | --- | --- | --- | --- | --- | --- | --- |
| NCC[C@H](O)C(=O)N[C@@H]1C[C@H](N)[C@@H](O[C@H]2O[C@H](CN)[C@@H](O)[C@H](O)[C@H]2O)[C@H](O)[C@H]1O[C@H]1O[C@H](CO)[C@@H](O)[C@H](N)[C@H]1O [AMK, amikacin] | 1 (≈ 1.71 µM) | 1 (≈ 1.71 µM) | resistant | > 256 | 2 (≈ 3.42 µM) | 2 (≈ 3.42 µM) | 2 (≈ 3.42 µM) | > 256 | 2 (≈ 3.42 µM) | – | – | – |
| C[C@H]1[C@H](NC(=O)/C(=N\OC(C)(C)C(=O)O)c2csc(N)n2)C(=O)N1S(=O)(=O)O [ATM, aztreonam] | 0.12 (≈ 0.276 µM) | 0.06 (≈ 0.138 µM) | – | 32 (≈ 73.5 µM) | – | 0.12 (≈ 0.276 µM) | 8 (≈ 18.4 µM) | – | 32 (≈ 73.5 µM) | 32 (≈ 73.5 µM) | 32 (≈ 73.5 µM) | 4 fold |
| CC(C)(O/N=C(\C(=O)N[C@@H]1C(=O)N2C(C(=O)[O-])=C(C[N+]3(CCNC(=O)c4ccc(O)c(O)c4Cl)CCCC3)CS[C@H]12)c1csc(N)n1)C(=O)O [CFDC, cefiderocol] | < 0.03 | < 0.03 | susceptible | 0.25 (≈ 0.332 µM) | – | – | 1 (≈ 1.33 µM) | 1 (≈ 1.33 µM) | – | 0.125 (≈ 0.166 µM) | 1 (≈ 1.33 µM) | – |
| CO/N=C(\C(=O)N[C@@H]1C(=O)N2C(C(=O)O)=C(COC(C)=O)CS[C@H]12)c1csc(N)n1 [CTX, cefotaxime] | 0.06 (≈ 0.132 µM) | 0.03 (≈ 0.0659 µM) | – | > 128 | 16 (≈ 35.1 µM) | 0.06 (≈ 0.132 µM) | 32 (≈ 70.3 µM) | > 128 | 32 (≈ 70.3 µM) | 32 (≈ 70.3 µM) | 128 (≈ 281 µM) | 4 fold |
| CO/N=C(\C(=O)N[C@@H]1C(=O)N2C(C(=O)O)=C(COC(N)=O)CS[C@H]12)c1ccco1 [CXM, cefuroxime] | 4 (≈ 9.43 µM) | 4 (≈ 9.43 µM) | – | > 1020 | 256 (≈ 603 µM) | 16 (≈ 37.7 µM) | 64 (≈ 151 µM) | > 1020 | 256 (≈ 603 µM) | 128 (≈ 302 µM) | 1020 (≈ 2410 µM) | over 4 fold |
| CO/N=C(\C(=O)N[C@@H]1C(=O)N2C(C(=O)[O-])=C(C[N+]3(C)CCCC3)CS[C@H]12)c1csc(N)n1 [FEP, cefepime] | 0.12 (≈ 0.25 µM) | 0.06 (≈ 0.125 µM) | – | 128 (≈ 266 µM) | 32 (≈ 66.6 µM) | 0.06 (≈ 0.125 µM) | 16 (≈ 33.3 µM) | > 128 | 32 (≈ 66.6 µM) | 2 (≈ 4.16 µM) | 64 (≈ 133 µM) | 4 fold |
| C[C@@H]1O[C@@H]1P(=O)(O)O [FOS, fosfomycin] | 0.25 (≈ 1.81 µM) | 0.25 (≈ 1.81 µM) | – | 1 (≈ 7.24 µM) | 0.5 (≈ 3.62 µM) | 0.5 (≈ 3.62 µM) | – | > 1020 | 0.5 (≈ 3.62 µM) | – | – | – |
| C[C@@H](O)[C@H]1C(=O)N2C(C(=O)O)=C(SCCN=CN)C[C@H]12 [IMP, imipenem] | – | 0.25 (≈ 0.835 µM) | – | 1 (≈ 3.34 µM) | 0.5 (≈ 1.67 µM) | 0.5 (≈ 1.67 µM) | – | 64 (≈ 214 µM) | 0.5 (≈ 1.67 µM) | – | – | – |
| C[C@H]1COc2c(N3CCN(C)CC3)c(F)cc3c(=O)c(C(=O)O)cn1c23 [LEV, levofloxacin] | 0.03 (≈ 0.083 µM) | 0.03 (≈ 0.083 µM) | resistant | 32 (≈ 88.6 µM) | 0.03 (≈ 0.083 µM) | 0.03 (≈ 0.083 µM) | – | 32 (≈ 88.6 µM) | 0.03 (≈ 0.083 µM) | 0.06 (≈ 0.166 µM) | 0.06 (≈ 0.166 µM) | – |
| C[C@@H](O)[C@H]1C(=O)N2C(C(=O)O)=C(S[C@@H]3CN[C@H](C(=O)N(C)C)C3)[C@H](C)[C@H]12 [MEM, meropenem] | 0.03 (≈ 0.0782 µM) | 0.03 (≈ 0.0782 µM) | – | 0.125 (≈ 0.326 µM) | 0.06 (≈ 0.156 µM) | 0.03 (≈ 0.0782 µM) | 0.06 (≈ 0.156 µM) | 128 (≈ 334 µM) | 0.06 (≈ 0.156 µM) | – | 0.06 (≈ 0.156 µM) | – |
| CCN1CCN(C(=O)N[C@@H](C(=O)N[C@@H]2C(=O)N3[C@@H]2SC(C)(C)[C@@H]3C(=O)O)c2ccccc2)C(=O)C1=O [PIP, piperacillin] | 1 (≈ 1.93 µM) | 1 (≈ 1.93 µM) | – | > 256 | 64 (≈ 124 µM) | 4 (≈ 7.73 µM) | 256 (≈ 495 µM) | > 256 | 64 (≈ 124 µM) | 256 (≈ 495 µM) | 256 (≈ 495 µM) | – |
